Experimental data: article PMC8002023, “3D Pharmacophore-Based Discovery of Novel KV10.1 Inhibitors with Antiproliferative Activity” (Cancers, 2021)
Read-outs that look alike come from different tables or passages of the source. One block for each molecule: values may come before it.

What was measured:
[1] = molecular target: T1, KV10.1 (Homo sapiens, UniProt O95259); test: Whole-cell patch clamp on HEK-293 cells stably expressing KV10.1; type: cell-based; details: for inhibition at 50 µM: HEK293, compound concentration 50 μM, stimuli to +40 mV, mean ± standard error, read-out: Effect on Kv10.1 (% Inhibition)
T1 construct: expressed in transfected cells
T1 sequence (O95259 1-962 isoform O95259-2): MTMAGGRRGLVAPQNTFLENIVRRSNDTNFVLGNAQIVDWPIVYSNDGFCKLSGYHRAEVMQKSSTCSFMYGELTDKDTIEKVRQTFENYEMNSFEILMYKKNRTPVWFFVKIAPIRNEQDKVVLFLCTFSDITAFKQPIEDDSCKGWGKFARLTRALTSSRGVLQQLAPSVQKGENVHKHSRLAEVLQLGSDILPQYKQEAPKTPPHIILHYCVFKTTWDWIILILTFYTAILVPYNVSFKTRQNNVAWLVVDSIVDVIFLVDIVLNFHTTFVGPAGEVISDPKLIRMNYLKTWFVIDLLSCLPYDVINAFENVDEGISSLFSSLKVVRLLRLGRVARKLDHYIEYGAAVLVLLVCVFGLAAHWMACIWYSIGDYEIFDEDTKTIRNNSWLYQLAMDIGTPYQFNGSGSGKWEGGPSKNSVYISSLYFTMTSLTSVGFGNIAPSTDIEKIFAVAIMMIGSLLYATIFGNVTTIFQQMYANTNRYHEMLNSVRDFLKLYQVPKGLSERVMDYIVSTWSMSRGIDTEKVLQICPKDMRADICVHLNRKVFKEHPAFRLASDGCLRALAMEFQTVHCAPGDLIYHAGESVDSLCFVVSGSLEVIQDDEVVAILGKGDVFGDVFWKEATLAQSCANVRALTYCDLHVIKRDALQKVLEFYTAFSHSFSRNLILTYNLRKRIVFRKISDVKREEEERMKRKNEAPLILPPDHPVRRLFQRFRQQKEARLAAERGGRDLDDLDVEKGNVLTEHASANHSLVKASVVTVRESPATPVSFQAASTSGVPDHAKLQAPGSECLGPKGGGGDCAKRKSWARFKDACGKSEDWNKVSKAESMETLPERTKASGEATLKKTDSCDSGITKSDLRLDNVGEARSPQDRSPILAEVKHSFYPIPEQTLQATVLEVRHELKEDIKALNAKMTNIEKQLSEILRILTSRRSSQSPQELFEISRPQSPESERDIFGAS
Procedure: (§1) Whole-cell patch clamp experiments were performed on stably transfected HEK-293 cells. The cells were grown on fibronectin-coated glass coverslips in DMEM supplemented with 10% FCS and 300 µg/mL Zeocin. Experiments were performed at room temperature under continuous perfusion. The extracellular solution contained (mM) 160 NaCl, 2.5 KCl, 2 CaCl2, 1 MgCl2, 10 Hepes/NaOH, pH 7.4, 8 glucose. For the experiments determining conductance–voltage relationships, tail currents were made visible by substituting 60 mM NaCl by KCl ([…], 100 NaCl). Pipettes were pulled from #1 glass capillaries (WPI) to resistances of 1–3 MΩ when loaded with the intracellular solution (100 KCl, 45 N-methyl-D-glucamine, 10 1,2-bis(o-aminophenoxy)ethane-N,N,N′,N′-tetraacetic acid (BAPTA), 10 Hepes pH 7.35). Data acquisition was performed using a EPC10 Plus amplifier (HEKA Elektronik) and Patch Master software. Drug application was performed using an 8-channel fast solution exchanger (ALA). All compounds were dissolved in DMSO to a final concentration of 10 mM. 0.5% DMSO in extracellular solution served as control. KV10.1 currents were elicited by 500 ms depolarisations to +40 mV under continuous perfusion with the compound-containing or control solution. hERG current amplitudes were measured as the peak tail current during a 4 s repolarization to −40 mV after a depolarising pulse to +20 mV lasting for 2 s.
The nine selected in silico hits were tested by manual patch-clamp on a HEK293 cell line stably expressing KV10.1 [33] at a compound concentration of 50 μM (Table 1). Compound activity was tested by determining the current amplitude elicited by repetitive stimuli to +40 mV from a holding potential of −80 mV. […] The hit compound ZVS-08 represents a new structural class of KV10.1 inhibitors with diarylamine structure and has a unique structure among the acquired virtual screening hits. […] The most notable change from the purpurealidin analogues is the replacement of the hydrogen bond acceptor group of the amide bond with the oxygen atom of the nitro group of ZVS-08.

[2] = molecular target: T1, KV10.1; design: method as in PMID 15365094; details: open-channel blocker; cited from earlier work
[3] = molecular target: T1, KV10.1; test: Whole-cell patch clamp on HEK-293 cells stably expressing KV10.1; type: cell-based; details: for inhibition at 10 µM: HEK293, mean ± standard error (or range); for KV10.1 inhibitory activity: SAR discussion of Table 3 (10 μM)
[4] = system: MCF-7 cells; test: Cell growth in 2D culture (Incucyte confluence, 72 h), MCF-7; type: cell-based; details: high KV10.1 and low hERG expression
Procedure: (§2) Cell lines MCF-7 (DSMZ ACC 115), PANC-1 (DSMZ ACC 783), and hTERT-RPE1 (ATCC CRL 4000) were grown in the media recommended by the cell provider in a humidified atmosphere at 5% CO2 and 37 °C. For cell growth experiments, 10^4 cells/well were seeded in 96-well flat bottom culture plates (Corning) and allowed to grow for 24 h. The compounds were then added in the corresponding growth medium, and the plate was imaged every hour for 72 h (two images per well and eight wells per condition in two independent experiments for compound 8 and five for ZVS-08 and compound 1) in an Incucyte system (Sartorius/Essen biosciences). Culture confluence was determined in the phase contrast images and is expressed as percent confluence per well. The growth was then normalised to the value in the absence of compounds.
KV10.1 inhibitors with a favourable pharmacological profile are promising candidates for cancer therapy. To investigate the activity of the new compounds on cancer cells proliferation, compounds ZVS-08, 1 and 8 were tested on MCF-7, a breast cancer cell line showing high KV10.1 expression and low hERG expression, and on Panc1, a pancreatic cancer cell line with undetectable KV10.1 expression and high level of hERG expression. hTERT-RPE1 cells served as a non-cancer cell line. hTERT-RPE1 cells show transient physiological expression of Kv10.1 that begins during the G2 phase of the cell cycle and extends through mitosis as present in normal cells. Different concentrations of the compounds were added to the culture medium and the growth of the cell was monitored over 72 h (Figure 14).

[5] = system: Panc1 cells; test: Cell growth in 2D culture (Incucyte confluence, 72 h), Panc1; type: cell-based; details: Homo sapiens, PANC-1, no KV10.1 and high hERG expression
Procedure: as §2
KV10.1 inhibitors with a favourable pharmacological profile are promising candidates for cancer therapy. […] Different concentrations of the compounds were added to the culture medium and the growth of the cell was monitored over 72 h (Figure 14).

[6] = system: Colo357 tumour spheroids; test: Apoptosis (caspase 3/7 reporter) in tumour spheroids; type: cell-based; details: 50 µM, caspase reporter fluorescence over 72 h, 8.9 µM cycloheximide as sensitizer
Procedure: Spheroids were cultured in round bottom ultra-low attachment 96-well plates (Corning) at a density of 5000 cells/well in 2% Matrigel (Corning) and centrifuged at 1000× g for 10 min. Spheroid formation was monitored continuously in the Incucyte system and treatments were added once spheroids were formed. As apoptosis sensitizer, 8.9 µM cycloheximide was added to controls and treated spheroids. Caspase 3/7 green reagent (Sartorius; 1:1000) was used as recommended by the manufacturer. Caspase 3/7 reagent substrate crosses the cell membrane and its cleavage by activated caspase-3/7 results in the release of a DNA dye and fluorescent staining of nuclear DNA.
To test the ability of the compounds to inhibit tumour progression in a more predictive system, we performed experiments on tumour spheroids of the pancreatic cancer cell line Colo357, which grows efficiently in this culture modality. The cells were seeded in the presence of Matrigel (see methods), allowed to form spheroids, and the compounds (50 µM) were added to the growth medium. The control contained the same amount of the vehicle (0.5% DMSO). Apoptosis was monitored by addition of a fluorescent […] activity reporter at the same time as the compounds. Cleavage of the reporter by caspase results in green florescence, and the intensity of the fluorescence was recorded over 72 h.

[7] = molecular target: T2, hERG (Homo sapiens, UniProt Q12809); test: Whole-cell patch clamp on stably transfected HEK-293 cells, hERG tail current; type: cell-based; details: peak tail current at −40 mV after +20 mV
T2 construct: expressed in transfected cells
T2 sequence (Q12809 whole entry): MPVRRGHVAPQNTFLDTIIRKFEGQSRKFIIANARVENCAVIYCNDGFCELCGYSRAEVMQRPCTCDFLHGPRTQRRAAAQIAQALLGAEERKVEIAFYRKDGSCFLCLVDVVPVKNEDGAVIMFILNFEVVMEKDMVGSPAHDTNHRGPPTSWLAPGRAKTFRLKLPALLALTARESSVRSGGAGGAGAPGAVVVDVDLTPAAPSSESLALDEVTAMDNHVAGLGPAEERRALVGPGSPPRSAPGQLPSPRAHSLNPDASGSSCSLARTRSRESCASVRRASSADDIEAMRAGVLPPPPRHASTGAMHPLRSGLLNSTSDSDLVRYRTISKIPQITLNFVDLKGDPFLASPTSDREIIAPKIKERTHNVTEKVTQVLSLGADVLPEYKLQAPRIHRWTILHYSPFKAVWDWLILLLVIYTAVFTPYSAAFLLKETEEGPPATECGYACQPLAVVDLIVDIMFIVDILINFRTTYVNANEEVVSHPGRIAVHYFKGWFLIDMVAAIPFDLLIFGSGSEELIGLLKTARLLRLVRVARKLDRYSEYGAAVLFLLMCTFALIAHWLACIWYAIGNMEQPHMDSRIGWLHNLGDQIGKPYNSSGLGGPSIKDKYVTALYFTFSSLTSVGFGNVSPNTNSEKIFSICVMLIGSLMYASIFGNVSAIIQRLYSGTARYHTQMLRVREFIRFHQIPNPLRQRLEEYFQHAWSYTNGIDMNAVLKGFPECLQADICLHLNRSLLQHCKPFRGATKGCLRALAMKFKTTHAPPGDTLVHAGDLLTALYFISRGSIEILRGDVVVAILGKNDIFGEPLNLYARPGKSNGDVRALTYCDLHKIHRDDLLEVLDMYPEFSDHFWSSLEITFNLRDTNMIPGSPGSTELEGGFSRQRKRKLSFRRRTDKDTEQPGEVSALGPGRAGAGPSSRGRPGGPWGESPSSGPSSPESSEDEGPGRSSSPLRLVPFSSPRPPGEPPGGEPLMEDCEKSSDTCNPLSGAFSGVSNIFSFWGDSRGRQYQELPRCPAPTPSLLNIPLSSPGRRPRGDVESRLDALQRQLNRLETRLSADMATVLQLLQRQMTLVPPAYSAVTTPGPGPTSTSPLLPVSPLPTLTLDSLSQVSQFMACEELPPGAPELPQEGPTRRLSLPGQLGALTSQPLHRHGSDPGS
Procedure: as §1

Compound: COc1ccc(CCN2CCC(Nc3nc4ccccc4n3Cc3ccc(F)cc3)CC2)cc1 [astemizole]
IC50 [2]: ~200 nM

Compound: O=[N+]([O-])c1cc(C(F)(F)F)ccc1Nc1ccc(OCC(O)CNc2ccccc2)cc1 (stereo not drawn) [Compound 5]
inhibition at 10 µM [3]: 2.53 ± 11.7%

Compound: CN(C)CC(O)COc1ccc(Nc2ccc(C(F)(F)F)cc2N)cc1 (stereo not drawn) [Compound 10]
inhibition at 10 µM [3]: 57 ± 21.7%

Compound: CN(C)CCCOc1ccc(Nc2ccc(C(F)(F)F)cc2[N+](=O)[O-])cc1 [Compound 1]
IC50 ([4]; Homo sapiens, MCF7, 72 h): 5480 nM | IC50 [4]: ~5000 nM | IC50 [5]: > 30000 nM | IC50 ([1]; HEK-293, 500 ms depolarisation to +40 mV, read-out: IC50 Kv10.1): 740 nM | inhibition at 10 µM [3]: 87.3 ± 4.6% | apoptosis induction in tumour spheroids [6]: required longer time, but reached similar efficacy | IC50 [7]: 207 nM

Compound: COC(=O)c1ccccc1Nc1ccc(OCC(O)CN(C)C)cc1 (stereo not drawn) [Compound 9]
inhibition at 10 µM [3]: 2 ± 7.45% | KV10.1 inhibitory activity [3]: inactive

Compound: CN(C)CC(O)COc1ccc(Nc2ccccc2)cc1 (stereo not drawn) [Compound 3]
melting point: 88 to 90.1 °C | inhibition at 10 µM [3]: 22.1 ± 33.5% | KV10.1 inhibitory activity [3]: almost inactive

Compound: CN(C)CC(O)COc1ccc(Nc2ccccc2C(=O)O)cc1 (stereo not drawn) [Compound 11]
inhibition at 10 µM [3]: 37.7 ± 7.13% | KV10.1 inhibitory activity [3]: inactive

Compound: CN(C)CC(O)COc1ccc(Nc2ccccc2[N+](=O)[O-])cc1 (stereo not drawn) [Compound 7]
melting point: 76.1 to 77.3 °C | inhibition at 10 µM [3]: 21 ± 30.3%

Compound: CN(C)CCCOc1ccc(Nc2ccccc2[N+](=O)[O-])cc1 [Compound 4]
inhibition at 10 µM [3]: 36.6 ± 19.9%

Compound: CN(C)CC(O)COc1ccc(Nc2ccc(C(F)(F)F)cc2)cc1 (stereo not drawn) [Compound 6]
melting point: 76.3 to 79.1 °C | inhibition at 10 µM [3]: 57.5 ± 28.4%

Compound: O=[N+]([O-])c1ccccc1Nc1ccc(OCC(O)CN2CCOCC2)cc1 (stereo not drawn) [Compound 2]
melting point: 95.6 to 97.5 °C | inhibition at 10 µM [3]: 23.9 ± 26.8%

Compound: CC(=O)NCC(O)COc1ccc(Nc2ccc(C(F)(F)F)cc2[N+](=O)[O-])cc1 (stereo not drawn) [Compound 12]
inhibition at 10 µM [3]: 16.6 ± 38.4%

The remaining lines, values ahead:

inhibition at 50 µM [1]: 4.68 ± 1.63%
Compound: COc1ccc(F)cc1C(=O)NCc1cnc(C2CCN(C)C2)[nH]1 (stereo not drawn) [ZVS-07]

inhibition at 50 µM [1]: 5.03 ± 2.87%
Compound: CN1CCN(S(=O)(=O)c2ccc(CNC(=O)c3ccccc3)s2)CC1 [ZVS-02]

inhibition at 50 µM [1]: -7.5 ± 4.65%
Compound: CN1CCN(c2cc(CNC(=O)c3cc(=O)[nH]c4ccccc34)ccn2)CC1 [ZVS-06]

inhibition at 50 µM [1]: -0.86 ± 0.75%
Compound: O=C(CCN1CCOCC1)Nc1ccc(S(=O)(=O)Nc2cc(Cl)cc(Cl)c2)cc1 [ZVS-04]

inhibition at 50 µM [1]: -1.14 ± 3.47%
Compound: CN1CCOC(c2nccc(CNC(=O)Cc3cccs3)n2)C1 (stereo not drawn) [ZVS-03]

inhibition at 50 µM [1]: 0.15 ± 1.67%
Compound: CN(C)Cc1cncc(C2CCCN2C(=O)c2ccc3c(c2)CCC3)n1 (stereo not drawn) [ZVS-09]

inhibition at 50 µM [1]: 8.84 ± 4.92%
Compound: CN1CCN(c2cc(CNC(=O)Cc3noc4ccccc34)ccn2)CC1 [ZVS-05]

inhibition at 50 µM [1]: -1.13 ± 4.5%
Compound: Cc1cccnc1C(=O)NCc1cnc(CCC2CCN(C)CC2)cn1 [ZVS-01]
